Values joined by “and” are separate entries in the source; they are usually repeats but may differ in a detail not shown here. Identical values can stand only once.
How the values were obtained:
[1] = Example 2: body weight of HepG2 tumor bearing humanized mice; format: in vivo, Mus musculus; settings: for Body Weight: individual animal; for Body Weight (g) Mean: group mean
Method: 1. Species: Mus musculus • Strain: Advanced immunodeficiency mouse. • (NOD.CgPrkdc^scid Il2rg) • Source: Trineo Biotechnology Co., LTD.
Each group contains six mice. The human hepatocellular carcinoma cell line HepG2 were subcutaneously inoculated to the advanced immune-deficiency mice. Total of 42 mice were included in this study.
3.1. […] The injection was performed using insulin syringe with the dosage of 0.3 mg/kg or 1 mg/kg and the injection volume was 5 mL/kg. […] The reference item was administered for G1. The procedure followed the standards of sample administration. The starting day of test item administration was denoted as the first experimental day (DO).
3.2. […] The injection was performed using insulin syringe with the dosage of 20 mg/kg and injection volume of 10 mL/kg. […] The procedure followed the standards of sample administration.
The measurement was performed from the next day of the inoculation. The animal body weights were measured and recorded twice per week.

[2] = test system: NK cells in tumor-infiltrating lymphocytes; test: Example 2: flow cytometry, percentage of NK cells in TILs; format: in vivo, Mus musculus; settings: individual animals and Mean
Method: Mice were sacrificed by CO2 euthanasia at the end of the study duration, and the connective tissue around tumor was resected. The tumor samples were then weighed and cut equally into three sections if the tumor weight over 400 mg. The tumor tissue was prepared for the isolation of tumor-infiltrating lymphocytes (TILs). The rest of one section was fixed in 10% formaldehyde and embedded in paraffin; the other was stored at a temperature below −70° C.
The tumor samples were dissected into smaller fragments using scalpels and then digested with a cocktail of collagenase, DNase I, and Hyaluronidase (Collagenase #C5138, DNase I #D5025, Hyaluronidase #H6254, SigmaAldrich) for at least 2 hours.
Cells were stained with the fluorescently conjugated surface antibodies and incubated for 30 minutes at 4° C., and then resuspended in staining buffer for flow cytometric analysis. Flow cytometry was done using a Navios EX Flow Cytometer (Beckman Coulter). Data were analyzed using the Kaluza Analysis Software (Beckman Coulter).

[3] = G2: OBI-3424 (0.3 mg/kg), 0.3 mg/kg
[4] = G2: OBI-3424 (0.3 mg/kg), 0.3 mg/kg, mean
[5] = G3: OBI-3424 (1 mg/kg), 1 mg/kg
[6] = G3: OBI-3424 (1 mg/kg), 1 mg/kg, mean

C[C@H](OP(=O)(N1CC1)N1CC1)c1ccc([N+](=O)[O-])c(Oc2cccc(C(=O)N(C)C)c2)c1 [OBI-3424, (S)-1-(3-(3-N,N-dimethylaminocarbonyl)phenoxyl-4-mtrophenyl)-1-ethyl-N,N′-bis(ethylene)phosphoramidate]
body weight (in words) ([1]; Example 2, until Day 30): Body weight loss was not seen
Body Weight ([1]; G2: OBI-3424 0.3 mg/kg, D2 after test item administration, 0.3 mg/kg): 22.12 g
Body Weight ([1]; G2: OBI-3424 0.3 mg/kg, D6 after test item administration, 0.3 mg/kg): 24.82 g
Body Weight ([1]; G2: OBI-3424 0.3 mg/kg, D9 after test item administration, 0.3 mg/kg): 20.84 g and 24.58 g
Body Weight ([1]; G2: OBI-3424 0.3 mg/kg, D13 after test item administration, 0.3 mg/kg): 23.96 g and 24.87 g
Body Weight ([1]; G2: OBI-3424 0.3 mg/kg, D16 after test item administration, 0.3 mg/kg): 24.02 g and 24.56 g and 24.17 g
Body Weight ([1]; G2: OBI-3424 0.3 mg/kg, D20 after test item administration, 0.3 mg/kg): 22.00 g and 24.21 g and 23.98 g
Body Weight ([1]; G2: OBI-3424 0.3 mg/kg, D23 after test item administration, 0.3 mg/kg): 23.98 g
Body Weight (g) Mean ([1]; G2: OBI-3424 0.3 mg/kg, D30 after test item administration): 22.06 g
Body Weight ([1]; G2: OBI-3424 0.3 mg/kg, D30 after test item administration, 0.3 mg/kg): 20.17 g and 21.65 g
Body Weight ([1]; G2: OBI-3424 0.3 mg/kg, L0 after tumor cell injection, 0.3 mg/kg): 20.66 g and 23.04 g and 25.00 g
Body Weight ([1]; G2: OBI-3424 0.3 mg/kg, L1 after tumor cell injection, 0.3 mg/kg): 23.02 g
Body Weight (g) Mean ([1]; G2: OBI-3424 0.3 mg/kg, L3 after tumor cell injection): 22.99 g
Body Weight ([1]; G2: OBI-3424 0.3 mg/kg, L7 after tumor cell injection, 0.3 mg/kg): 23.01 g
Body Weight ([1]; G3: OBI-3424 1 mg/kg, D2 after test item administration, 1 mg/kg): 20.20 g and 24.22 g
Body Weight ([1]; G3: OBI-3424 1 mg/kg, D6 after test item administration, 1 mg/kg): 24.90 g
Body Weight ([1]; G3: OBI-3424 1 mg/kg, D9 after test item administration, 1 mg/kg): 22.01 g and 24.85 g
Body Weight ([1]; G3: OBI-3424 1 mg/kg, D13 after test item administration, 1 mg/kg): 25.97 g
Body Weight ([1]; G3: OBI-3424 1 mg/kg, D20 after test item administration, 1 mg/kg): 24.21 g and 25.53 g and 21.98 g
Body Weight (g) Mean ([1]; G3: OBI-3424 1 mg/kg, D23 after test item administration): 24.04 g
Body Weight ([1]; G3: OBI-3424 1 mg/kg, D23 after test item administration, 1 mg/kg): 23.02 g and 25.37 g
Body Weight ([1]; G3: OBI-3424 1 mg/kg, D30 after test item administration, 1 mg/kg): 22.02 g
Body Weight ([1]; G3: OBI-3424 1 mg/kg, L0 after tumor cell injection, 1 mg/kg): 19.46 g
Body Weight ([1]; G3: OBI-3424 1 mg/kg, L3 after tumor cell injection, 1 mg/kg): 20.70 g and 24.21 g and 20.80 g and 24.01 g
Body Weight ([1]; G3: OBI-3424 1 mg/kg, L7 after tumor cell injection, 1 mg/kg): 24.22 g and 25.55 g
NK cells (CD45^+CD56^+) CD45^+ Gated % [2, 3]: 6.33% and 8.78% and 8.87% and 10.05% and 2.25% and 6.70%
NK cells (CD45^+CD56^+) Cell count [2, 3]: 2.30 ×10^5 and 6.67 ×10^5 and 20.68 ×10^5 and 1.46 ×10^5 and 2.47 ×10^5 and 1.84 ×10^5
NK cells (CD45^+CD56^+) Total % [2, 3]: 1.18% and 3.26% and 3.83% and 6.83% and 1.00% and 2.54%
PD-1^+ NK cells (CD45^+CD56^+PD-1^+) Cell count [2, 3]: 1.65 ×10^5 and 2.21 ×10^5 and 10.85 ×10^5 and 0.31 ×10^5 and 2.17 ×10^5 and 0.83 ×10^5
PD-1^+ NK cells (CD45^+CD56^+PD-1^+) NK Gated % [2, 3]: 71.96% and 33.17% and 52.46% and 21.08% and 87.65% and 44.79%
PD-1^+ NK cells (CD45^+CD56^+PD-1^+) Total % [2, 3]: 0.85% and 1.08% and 2.01% and 1.44% and 0.88% and 1.14%
NK cells (CD45^+CD56^+) CD45^+ Gated % [2, 4]: 7.16%
NK cells (CD45^+CD56^+) Cell count [2, 4]: 5.90 ×10^5
NK cells (CD45^+CD56^+) Total % [2, 4]: 3.11%
PD-1^+ NK cells (CD45^+CD56^+PD-1^+) Cell count [2, 4]: 3.00 ×10^5
PD-1^+ NK cells (CD45^+CD56^+PD-1^+) NK Gated % [2, 4]: 51.85%
PD-1^+ NK cells (CD45^+CD56^+PD-1^+) Total % [2, 4]: 1.23%
NK cells (CD45^+CD56^+) CD45^+ Gated % [2, 5]: 3.99% (2×) and 5.65% and 6.00% and 4.05% and 4.24%
NK cells (CD45^+CD56^+) Cell count [2, 5]: 0.77 ×10^5 and 4.27 ×10^5 and 2.08 ×10^5 and 2.41 ×10^5 and 1.96 ×10^5 and 1.99 ×10^5
NK cells (CD45^+CD56^+) Total % [2, 5]: 2.64% and 3.38% and 2.95% and 2.44% and 2.63% and 2.46%
PD-1^+ NK cells (CD45^+CD56^+PD-1^+) Cell count [2, 5]: 0.26 ×10^5 and 1.64 ×10^5 and 1.02 ×10^5 and 1.77 ×10^5 (2×) and 1.04 ×10^5
PD-1^+ NK cells (CD45^+CD56^+PD-1^+) NK Gated % [2, 5]: 34.34% and 38.34% and 48.85% and 73.40% and 53.12% and 88.62%
PD-1^+ NK cells (CD45^+CD56^+PD-1^+) Total % [2, 5]: 0.91% and 1.30% and 1.44% and 1.79% and 1.40% and 2.18%
NK cells (CD45^+CD56^+) CD45^+ Gated % [2, 6]: 4.65%
NK cells (CD45^+CD56^+) Cell count [2, 6]: 2.25 ×10^5
NK cells (CD45^+CD56^+) Total % [2, 6]: 2.75%
PD-1^+ NK cells (CD45^+CD56^+PD-1^+) Cell count [2, 6]: 1.25 ×10^5
PD-1^+ NK cells (CD45^+CD56^+PD-1^+) NK Gated % [2, 6]: 56.11%
PD-1^+ NK cells (CD45^+CD56^+PD-1^+) Total % [2, 6]: 1.50%
